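Tested at 5 concentrations; 48 h exposure; 96-well plates; endpoints linearly interpolated, else capped at highest concentration. TGI: concentration producing complete growth inhibition.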 Some results are limits rather than exact numbers.

Some test systems named below: 786-0 renal; A498 renal; ACHN renal; EKVX NSCLC; HCT-116 colon; HCT-15 colon; K-562 leukemia; MDA-MB-231 breast; MDA-N; MOLT-4 leukemia; NCI-H460 lung; OVCAR-4 ovarian; OVCAR-5 ovarian; RPMI-8226 leukemia; SF-539 CNS; SK-MEL-2 melanoma; SK-MEL-28 melanoma; SW-620 colon; UO-31 renal; UACC-62 melanoma.
What all share (assay): inhibition of tumour cell growth, NCI panel, 48 h

In the case of `CC1=NN(c2cccc(Cl)c2)C2(SCC(=O)N2c2nc3ccccc3s2)/C1=C\c1ccc(N(C)C)cc1` (stereo not drawn), the TGI in the assay with 786-0 renal was > 100 µM; with A498 renal, 87.9 µM; in the assay with ACHN renal, 84.1 µM; in the assay with EKVX NSCLC, > 100 µM; with HCT-116 colon, > 100 µM; with HCT-15 colon, > 100 µM. In addition, the TGI with K-562 leukemia, in the assay with MDA-MB-231 breast, in the assay on MDA-N, in the assay on MOLT-4 leukemia, with NCI-H460 lung and in the assay on OVCAR-4 ovarian was > 100 µM throughout. Besides, the TGI in the assay on OVCAR-5 ovarian was > 100 µM; in the assay on RPMI-8226 leukemia it was > 100 µM; with SF-539 CNS, > 100 µM; in the assay on SK-MEL-2 melanoma, 57.5 µM; in the assay with SK-MEL-28 melanoma, > 100 µM; with SW-620 colon, > 100 µM. For the same molecule, in the assay on UO-31 renal, the TGI is > 100 µM.
Consider `COc1cc(S(=O)(=O)Nc2nc(-c3ccc(N4C(=O)/C(=C/C=C/c5ccccc5)N=C4c4ccccc4)cc3)cs2)ccc1Cl`, for which the TGI in the assay on 786-0 renal, with A498 renal, with ACHN renal, in the assay with HCT-116 colon, in the assay on HCT-15 colon and with K-562 leukemia was > 100 µM in each case. In addition, the TGI in the assay with MDA-MB-231 breast, with MDA-N, in the assay with MOLT-4 leukemia, in the assay on NCI-H460 lung, in the assay on OVCAR-4 ovarian and in the assay with OVCAR-5 ovarian was > 100 µM in each case. Besides, the TGI in the assay with SF-539 CNS, in the assay with SK-MEL-2 melanoma, with SK-MEL-28 melanoma, in the assay with SW-620 colon, in the assay with UACC-62 melanoma and with UO-31 renal was > 100 µM each time.
Turning to `Nc1nc2c(c(=O)[nH]1)C(c1ccccc1)CC(=O)N2` (stereo not drawn), the TGI in the assay with 786-0 renal, with A498 renal, in the assay on ACHN renal, in the assay on EKVX NSCLC, in the assay on HCT-116 colon and in the assay on HCT-15 colon was > 100 µM each time. Moreover, the TGI in the assay with K-562 leukemia, in the assay with MDA-MB-231 breast, in the assay on MDA-N, in the assay with MOLT-4 leukemia, in the assay on NCI-H460 lung and in the assay on OVCAR-4 ovarian was > 100 µM each time. Moreover, the TGI with OVCAR-5 ovarian, in the assay with RPMI-8226 leukemia, with SF-539 CNS, in the assay with SK-MEL-2 melanoma, with SK-MEL-28 melanoma and in the assay with SW-620 colon was > 100 µM throughout. For the same molecule, the TGI in the assay with UACC-62 melanoma and with UO-31 renal was > 100 µM each time.
For `Cc1cccc2c1C(=O)[C@](C)([C@]1(C)Nc3cccc(C)c3C1=O)N2`, the TGI is > 100 µM in the assay on 786-0 renal; > 100 µM in the assay with A498 renal; > 100 µM in the assay with ACHN renal; 71.7 µM with EKVX NSCLC; > 100 µM in the assay with HCT-116 colon; > 100 µM in the assay with HCT-15 colon. The TGI was > 100 µM in the assay with K-562 leukemia; > 100 µM with MDA-MB-231 breast; 63 µM in the assay on MDA-N; 72.6 µM in the assay on MOLT-4 leukemia; > 100 µM in the assay on NCI-H460 lung; > 100 µM with OVCAR-4 ovarian. In addition, the TGI was 58 µM in the assay with OVCAR-5 ovarian; 53.7 µM in the assay with RPMI-8226 leukemia; 74.9 µM in the assay with SF-539 CNS; 69.2 µM in the assay on SK-MEL-2 melanoma; > 100 µM with SK-MEL-28 melanoma; > 100 µM in the assay with SW-620 colon. Further, the TGI in the assay with UACC-62 melanoma was > 100 µM; in the assay with UO-31 renal, 51.8 µM.
Turning to `CCN1C(=O)C(=C/C=C/C=C2/N(C)c3ccccc3C2(C)C)C(=O)N(CC)C1=S`, the TGI with 786-0 renal, with A498 renal, with ACHN renal, with EKVX NSCLC, in the assay with HCT-116 colon and in the assay on HCT-15 colon was > 100 µM in each case. For the same molecule, the TGI in the assay on K-562 leukemia, in the assay on MDA-MB-231 breast, in the assay with MDA-N, in the assay on NCI-H460 lung, with OVCAR-4 ovarian and in the assay on OVCAR-5 ovarian was > 100 µM in each case. Moreover, the TGI in the assay on RPMI-8226 leukemia, in the assay with SF-539 CNS, in the assay with SK-MEL-2 melanoma, in the assay with SW-620 colon, in the assay on UACC-62 melanoma and with UO-31 renal was > 100 µM throughout.
With `C/C(=N\n1c(Cc2ccccc2)n[nH]c1=O)c1ccccc1`, the TGI with 786-0 renal, in the assay on A498 renal, with ACHN renal, with EKVX NSCLC, in the assay on HCT-116 colon and in the assay on HCT-15 colon was > 100 µM each time. The TGI in the assay with K-562 leukemia, in the assay with MDA-MB-231 breast, in the assay with MDA-N, in the assay on MOLT-4 leukemia, in the assay with OVCAR-4 ovarian and with OVCAR-5 ovarian was > 100 µM in each case. Further, the TGI in the assay on RPMI-8226 leukemia, in the assay with SF-539 CNS, in the assay on SK-MEL-2 melanoma, in the assay with SK-MEL-28 melanoma, in the assay on SW-620 colon and in the assay with UACC-62 melanoma was > 100 µM throughout. The TGI in the assay on UO-31 renal is > 100 µM.
With `Clc1ccc(OCc2nnc(CCCCCCCCc3nnc(COc4ccc(Cl)cc4Cl)n3Nc3ccccc3)n2Nc2ccccc2)c(Cl)c1`, the TGI with 786-0 renal was 31.2 µM; with A498 renal, 55.6 µM; in the assay on ACHN renal it was 46.1 µM; in the assay with EKVX NSCLC it was > 68.3 µM; in the assay with HCT-116 colon, 25.1 µM; in the assay with HCT-15 colon it was 35 µM. The TGI in the assay with MDA-MB-231 breast was 24.4 µM; in the assay with MDA-N it was 27.7 µM; in the assay on MOLT-4 leukemia, > 100 µM; in the assay with NCI-H460 lung it was 21.1 µM; in the assay with OVCAR-4 ovarian, 59.5 µM; in the assay on OVCAR-5 ovarian it was 43.9 µM. The TGI was 16.9 µM in the assay on RPMI-8226 leukemia; 33.5 µM with SF-539 CNS; 24.8 µM in the assay on SK-MEL-2 melanoma; 19 µM with SK-MEL-28 melanoma; > 62.6 µM with SW-620 colon; 15.7 µM in the assay on UACC-62 melanoma. The molecule further registered a TGI in the assay with UO-31 renal of 40 µM.

The values above are taken from PubChem BioAssay (NCI).
